Values of other authors in article PMC6476928 (Frontiers in Pharmacology, 2019).

Assays:
kv4.1 = conditions: X. laevis oocytes; cited from earlier work
Description: Supplement Data_Sheet_1.docx, table 1: Supplementary Table 1.Activity of spider toxins on Kv2 and Kv4 channel subtypes Activities of spider toxins against different subtypes of Kv2 and Kv4 potassium channels are reported as IC50 (nanomolar) or as percentage of current inhibition at a single dose (nanomolar). Affinity (IC50) measurements | column: kv4.1

Kv4.2 = molecular target: T1, Kv4.2 (Homo sapiens, UniProt Q9NZV8); conditions: X. laevis oocytes, cited from earlier work
T1 sequence (Q9NZV8 1-630): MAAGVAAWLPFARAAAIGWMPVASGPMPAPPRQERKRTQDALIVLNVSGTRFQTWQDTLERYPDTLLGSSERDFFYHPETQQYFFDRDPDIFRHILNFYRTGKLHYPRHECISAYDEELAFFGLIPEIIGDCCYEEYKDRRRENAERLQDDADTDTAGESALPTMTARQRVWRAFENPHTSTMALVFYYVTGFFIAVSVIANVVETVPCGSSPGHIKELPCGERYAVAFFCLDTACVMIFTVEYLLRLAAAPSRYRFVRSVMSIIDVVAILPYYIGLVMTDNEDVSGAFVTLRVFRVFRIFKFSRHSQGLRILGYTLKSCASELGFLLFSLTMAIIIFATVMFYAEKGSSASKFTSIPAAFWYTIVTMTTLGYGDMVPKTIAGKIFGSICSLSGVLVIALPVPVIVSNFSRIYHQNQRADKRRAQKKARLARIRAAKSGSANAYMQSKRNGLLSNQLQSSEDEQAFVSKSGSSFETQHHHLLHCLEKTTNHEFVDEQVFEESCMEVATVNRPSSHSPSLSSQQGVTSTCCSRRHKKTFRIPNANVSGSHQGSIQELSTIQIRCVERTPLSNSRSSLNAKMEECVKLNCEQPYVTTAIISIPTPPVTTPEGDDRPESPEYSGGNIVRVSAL
T1 sequence (Q9NS61 1-270 partner): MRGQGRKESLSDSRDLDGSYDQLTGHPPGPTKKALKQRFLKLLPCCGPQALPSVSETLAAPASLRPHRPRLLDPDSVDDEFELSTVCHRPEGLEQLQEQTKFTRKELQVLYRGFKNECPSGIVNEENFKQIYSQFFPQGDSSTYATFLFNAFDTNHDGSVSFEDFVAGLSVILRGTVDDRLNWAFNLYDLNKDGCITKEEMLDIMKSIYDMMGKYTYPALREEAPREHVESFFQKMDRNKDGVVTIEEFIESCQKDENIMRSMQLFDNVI
Description: (§1) Supplement Data_Sheet_1.docx, table 1: Supplementary Table 1.Activity of spider toxins on Kv2 and Kv4 channel subtypes Activities of spider toxins against different subtypes of Kv2 and Kv4 potassium channels are reported as IC50 (nanomolar) or as percentage of current inhibition at a single dose (nanomolar). Affinity (IC50) measurements | column: kv4.2 || Animal toxins target ion channels, and are thus valuable resources with potential therapeutic applications. The Kv4 subfamily from scorpion ([Maffie et al., 2013]; [Xie et al., 2014]) and spider venom ([Escoubas et al., 2002]; [Ebbinghaus et al., 2004]; [Yuan et al., 2007], [2012]; [DeSimone et al., 2009]) has a rich toxin pharmacology. HaTx, originally isolated from venom of the Chilean rose tarantula (Grammostola spatulata), inhibits Kv4.2 channels effectively, with similar affinity for Kv2.1 ([Swartz and MacKinnon, 1995]; [Swartz, 2007]). Other Kv4 channel inhibitors, Stromatoxin (ScTx1) fr ...

kv2.1 = conditions: X. laevis oocytes, Hill relation nH = 1; cited from earlier work
Description: as §1, with “kv2.1” for “kv4.2”

With Stromatoxin [ScTx1, reference compound] as the substance, how does the “activity on kv4.1” value (kv4.1) read?
The value was “No O”.

What about the IC50 (Kv4.2; Hill relation nH = 1) of the same substance?
The IC50 was 0.0012 µM.

What does the source list for hanatoxin [HaTx1, reference compound]?
IC50 (kv2.1): 0.042 µM; inhibition (Kv4.2; 500nM, read-out: percentage of current inhibition kv4.2): 70%
